Assays:
[1] = tested on: PHA-activated T-cell proliferation; experiment: PHA-activated T-cell proliferation assay (3H-thymidine incorporation); assay type: cell-based, human
Protocol: The T-cell proliferation assay was performed as described by Nielson et al. (19). In this assay, isolated lymphocytes were stimulated by adding the phytohemagglutinin (PHA) in culture. The rate of proliferation and survival was measured by radiolabelled thymidine incorporation method. The lymphocytes were isolated as described by Boyum (20). A 50 μL of cell suspension (10^6/mL) was added to each well of a 96-well round bottom tissue culture plate. 50 μL of PHA was added in each well from the working solution (20 μg/mL) to have final concentration 5 μg/mL. The final volume was adjusted to 200 μL in each well by adding complete RPMI media. The plates were incubated at 37° C. for 72 hours (90% humidity, 5% CO2/air). Methyl-^3H thymidine (Amersham Pharmacia Biotech) 0.5 μCi was added in each well and incubated for further 18 hours. Cells were harvested on a filter mat (Type G-7) using cell harvester (INOTECH IH-280, Switzerland) and the radioactivity (CPM) was measured using a β-scintillation counter (LS 6500, Beckman Coulter, USA). (FIG. 2A)

[2] = tested on: human lung cancer cell line (NCI-H460); experiment: Sulforhodamine B (SRB) growth inhibition assay; assay type: cell-based; settings: for TGI (μM), could not be determined: NCI-H460, maximum dose 100 μM
Protocol: The sulforhodamine B (SRB) protein-staining assay was employed for measurement of in vitro growth inhibition and cytotoxicity (21) The appropriate cell density (cells/well) of NCI-H460 cells (1×10^4) was added in 96-well plates. The cell density used was dependent on the doubling time of the cell line leading to the formation of monolayer. After 24 h incubation, different doses of Compounds 1-3 were added and incubated for further 48 h. This was followed by fixation of cells with ice-cold trichloroacetic acid (50 μl, 50%) at room temperature for 30 min. The plates were carefully washed five times with distilled water, and left for overnight drying in air. Sulforhodamine B dye (100 μl, 0.4% in 1% acetic acid) was introduced in each well and after 30 min residual dye was removed using acetic acid (1%) and air-dried overnight. The bound SRB dye was solubilized in Tris-base solution (100 μl, 10 mM) with gentle shaking on a plate-shaker for 5 min prior to optical density (OD) measurements at 545 nm in a plate reader. Drug concentrations causing growth inhibition (GI50) of 50% cells were calculated from dose response curves and total growth inhibition of Compound 2 was also evaluated.

[3] = tested on: IL-2 production from peripheral blood mononuclear cells; experiment: IL-2 cytokine production by PHA-activated PBMC (ELISA); assay type: cell-based, human
Protocol: IL-2 cytokine was produce from peripheral blood mononuclear cells (PBMC). IL-2 cytokine production by PHA activated cells in the presence or absence of test compounds was studied by ELISA using the human cytokine kit (Diaclone, Besancon Cedex France). Briefly, freshly prepared mononuclear cells (10^5/well) were cultured in 96-well microtiter flat bottom plate in the presence or absence of 5 μg/mL PHA. Four different concentrations (10.33-331.13 μM/mL) of compounds, along with PHA, were used in this assay. The culture plate was incubated at 37° C. for 18 h. Then the supernatant was collected and analyzed for IL-2 cytokine production following kit manufacturer instructions.

[4] = tested on: isolated polymorphoneutrophils (PMNs); experiment: Luminol-enhanced chemiluminescence oxidative burst assay, isolated PMNs; assay type: cell-based, human
Description: (§1) Heparinized blood was obtained by vein puncture aseptically from healthy volunteers (25-38 years age). The buffy coat containing PMNs was collected by dextran sedimentation and the cells were isolated after the LSM density gradient centrifugation from the tube base. Cells were washed twice and suspended in Hank's Balance Salt Solution (Ca^2+ and Mg^2+ free) (HBSS^−−), pH 7.4. Neutrophils were purified from RBCs contamination using hypotonic solution. Cells were adjusted to their required concentration using Hank's Balance Salt Solution containing Ca^2+ and Mg^2+ (HBSS++)
(§2) Luminol-enhanced chemiluminescence assay was performed as described by Helfand et al. (17), and Haklar et al. (18) with some modifications. Briefly, 25 μL diluted whole blood (1:200 dilution in sterile HBSS^++) or 25 μL of PMNs (1×10^6) cells were incubated with 25 μL of serially diluted compounds with concentration ranges between 3.2-50 mg/mL. Tests were performed in white 96-well plates, which were incubated at 37° C. for 30 minutes in the thermostated chamber of the luminometer. Opsonized zymosan-A, 25 μL, followed by 25 μL luminol (7×10^−5M) along with HBSS^++ was added to each well to obtain a 100 μL volume/well. […] Chemiluminescence peaks were recorded with the Luminometer. Results were monitored as chemiluminescence relative light units (RLU) with peak and total integral values.

whole blood phagocytes = experiment: Luminol-enhanced chemiluminescence oxidative burst assay, whole blood; assay type: cell-based, human
Description: as §1, §2

SMILES | effect on T-cell proliferation [1] | anticancer activity against NCI-H460 [2] | TGI (μM), could not be determined [2] | effect on IL-2 production [3] | effect on ROS production, isolated neutrophils [4] | effect on ROS production, whole blood phagocytes (whole blood phagocytes) | growth inhibition of cancer cells at 100 μM ([2]; 100 μM)
C[C@]12C=CC(=O)C=C1CC[C@@H]1[C@@H]2CC[C@@]2(C)[C@H]1CC[C@]2(C)O [Compound 1, dianabol, reference compound] | did not show any significant effect | showed anticancer activity | ND (Values could not be determined indicates <50% inhibition of cell growth at maximum dose (100 μM) tested.) | did not show any significant effect |  |  | 
C[C@]12C=CC(=O)C[C@@H]1CC[C@@H]1[C@@H]2CC[C@@]2(C)[C@H]1CC[C@]2(C)O [Compound 2, 17β-hydroxy-17α-methyl-5α-androst-1-en-3-one] |  | showed anticancer activity |  |  | did not result in any significant effect | did not result in any significant effect | 
C[C@]12CCC(=O)C[C@@H]1CC[C@@H]1[C@@H]2CC[C@@]2(C)[C@H]1CC[C@]2(C)O [Compound 3, 17β-hydroxy-17α-methyl-5α-androstan-3-one] | moderate inhibitory activity | non-active | ND (Values could not be determined indicates <50% inhibition of cell growth at maximum dose (100 μM) tested.) | moderate inhibitory activity | did not result in any significant effect | did not result in any significant effect | not able to inhibit considerable growth

From patent US8329678B1, “Antiinflammatory compound” (priority 2011, dated 2012)
